Measured values taken from US7189351B2, “D-tagatose as an anti-biofilm agent” (priority 2001, dated 2007).

Tests used:
[1] = tested on: Actinomyces naeslundii PK29/Streptococcus mitis J22; test: reversal of coaggregation, visual score; assay type: cell-based; conditions: pair PK29/J22; sugar 750 mM; water score 4; scale 0 no visible to 4 maximum coaggregation
Experimental: (§1) Fifteen oral isolates, including both early colonizers (Streptococcus and Actinomyces) and late colonizers (Fusobacterium, Porphyromonas, Prevotella, Veillonella, Capnocytophaga, and Actinobacillus), were tested for their ability to coaggregate with each other, followed by testing for the reversal of coaggregation by the addition of D-tagatose. Bacterial strains used were of human gingival crevice origin. The coaggregation was examined visually by a scoring system ranging from 0 for no visible coaggregation to 4 for maximum coaggregation [Cisar J. O., Kolenbrander P. E., and McIntire F. C., “Specificity of coaggregation reactions between human oral streptococci and strains of Actinomyces viscosus or Actinomyces naeslundii”, Infect. Immun., 24:742–752. 1979]. D-Tagatose, at a concentration of less than 750 mM, completely reversed the coaggregation of 17 (60%) of 28 strong coaggregating pairs (with a coaggregation score of 2 or higher) tested. […] These D-tagatose sensitive coaggregations were D-galactose reversible as well.
(§2) Pairs of various species of oral bacteria were tested for coaggregation, and for reversal of coaggregation when D-tagatose or D-galactose was administered.

[2] = tested on: Actinomyces naeslundii PK947/Streptococcus oralis SO34; test: reversal of coaggregation, visual score; assay type: cell-based; conditions: pair PK947/SO34; sugar 200 mM; water score 3; scale 0 no visible to 4 maximum coaggregation
Experimental: as §1, §2

[3] = tested on: Actinomyces naeslundii PK947/Streptococcus mitis J22; test: reversal of coaggregation, visual score; assay type: cell-based; conditions: pair PK947/J22; sugar 200 mM; water score 2; scale 0 no visible to 4 maximum coaggregation
Experimental: as §1, §2

[4] = tested on: Actinomyces naeslundii PK947/Streptococcus oralis C104; test: reversal of coaggregation, visual score; assay type: cell-based; conditions: pair PK947/C104; sugar 200 mM; water score 2; scale 0 no visible to 4 maximum coaggregation
Experimental: as §1, §2

[5] = tested on: Actinomyces naeslundii PK29/Streptococcus morbillorum PK509; test: reversal of coaggregation, visual score; assay type: cell-based; conditions: pair PK29/PK509; sugar 200 mM; water score 2; scale 0 no visible to 4 maximum coaggregation
Experimental: as §1, §2

[6] = tested on: Prevotella loescheii PK1295/Streptococcus oralis C104; test: reversal of coaggregation, visual score; assay type: cell-based; conditions: pair PK1295/C104; sugar 750 mM; water score 4; scale 0 no visible to 4 maximum coaggregation
Experimental: as §1, §2

[7] = tested on: Prevotella loescheii PK1295/Streptococcus oralis SO34; test: reversal of coaggregation, visual score; assay type: cell-based; conditions: pair PK1295/SO34; sugar 750 mM; water score 4; scale 0 no visible to 4 maximum coaggregation
Experimental: as §1, §2

[8] = tested on: coaggregating pairs of oral isolates (early and late colonizers); test: reversal of coaggregation among fifteen oral isolates (overall); assay type: cell-based, bacterial strains of human gingival crevice origin
Experimental: as §1, §2

[9] = tested on: Veillonella atypica PK1910/Streptococcus oralis SO34; test: reversal of coaggregation, visual score; assay type: cell-based; conditions: pair PK1910/SO34; sugar 200 mM; water score 3; scale 0 no visible to 4 maximum coaggregation
Experimental: as §1, §2

[10] = tested on: Veillonella atypica PK1910/Streptococcus oralis C104; test: reversal of coaggregation, visual score; assay type: cell-based; conditions: pair PK1910/C104; sugar 200 mM; water score 3; scale 0 no visible to 4 maximum coaggregation
Experimental: as §1, §2

[11] = tested on: Streptococcus morbillorum PK509/Veillonella atypica PK1910; test: reversal of coaggregation, visual score; assay type: cell-based; conditions: pair PK509/PK1910; sugar 400 mM; water score 2; scale 0 no visible to 4 maximum coaggregation
Experimental: as §1, §2

[12] = tested on: Prevotella loescheii PK1295/Streptococcus mitis J22; test: reversal of coaggregation, visual score; assay type: cell-based; conditions: pair PK1295/J22; sugar 750 mM; water score 4; scale 0 no visible to 4 maximum coaggregation
Experimental: as §1, §2

[13] = tested on: Fusobacterium nucleatum PK1594/Actinobacillus actinomycetemcomitans JP2; test: reversal of coaggregation, visual score; assay type: cell-based; conditions: pair PK1594/JP2; sugar 600 mM; water score 3; scale 0 no visible to 4 maximum coaggregation
Experimental: as §1, §2

[14] = tested on: Actinomyces naeslundii PK29/Streptococcus oralis SO34; test: reversal of coaggregation, visual score; assay type: cell-based; conditions: pair PK29/SO34; sugar 750 mM; water score 4; scale 0 no visible to 4 maximum coaggregation
Experimental: as §1, §2

[15] = tested on: Streptococcus morbillorum PK509/Streptococcus oralis C104; test: reversal of coaggregation, visual score; assay type: cell-based; conditions: pair PK509/C104; sugar 750 mM; water score 3; scale 0 no visible to 4 maximum coaggregation
Experimental: as §1, §2

[16] = tested on: Streptococcus morbillorum PK509/Prevotella loescheii PK1295; test: reversal of coaggregation, visual score; assay type: cell-based; conditions: pair PK509/PK1295; sugar 600 mM; water score 2; scale 0 no visible to 4 maximum coaggregation
Experimental: as §1, §2

[17] = tested on: Streptococcus morbillorum PK509/Streptococcus oralis SO34; test: reversal of coaggregation, visual score; assay type: cell-based; conditions: pair PK509/SO34; sugar 400 mM; water score 2; scale 0 no visible to 4 maximum coaggregation
Experimental: as §1, §2

[18] = tested on: Fusobacterium nucleatum PK1594/Porphyromonas gingivalis PK1924; test: reversal of coaggregation, visual score; assay type: cell-based; conditions: pair PK1594/PK1924; sugar 400 mM; water score 4; scale 0 no visible to 4 maximum coaggregation
Experimental: as §1, §2

[19] = tested on: Actinomyces naeslundii PK29/Streptococcus oralis C104; test: reversal of coaggregation, visual score; assay type: cell-based; conditions: pair PK29/C104; sugar 750 mM; water score 4; scale 0 no visible to 4 maximum coaggregation
Experimental: as §1, §2

[20] = tested on: Fusobacterium nucleatum PK1594/Veillonella atypica PK1910; test: reversal of coaggregation, visual score; assay type: cell-based; conditions: pair PK1594/PK1910; sugar 200 mM; water score 3; scale 0 no visible to 4 maximum coaggregation
Experimental: as §1, §2

[21] = tested on: F. nucleatum PK1594 and P. gingivalis PK1924; test: phase-contrast photomicrographs of coaggregation; assay type: cell-based, Fusobacterium nucleatum; Porphyromonas gingivalis; conditions: 400 mM final concentration

How did the coaggregation score [1] turn out when `OC[C@@H](O)[C@@H](O)[C@H](O)[C@@H](O)CO` [D-Sorbitol] was run?
Its coaggregation score is 4.

What about the coaggregation score [2] of the same compound?
Its coaggregation score is 2.

And the coaggregation score [3]?
The coaggregation score was 2.

And the coaggregation score [4]?
Its coaggregation score is 1.

What about the coaggregation score [5] of the same compound?
Its coaggregation score is 2.

What about the coaggregation score [6] of the same compound?
Its coaggregation score is 2.

And the coaggregation score [7]?
Its coaggregation score is 1.

What about the “plaque reversibility, comparison of Table 2” value ([8]; D-tagatose and D-sorbitol at somewhat higher concentrations than D-galactose) of the same compound?
The value was “markedly inferior”.

And the “effect on the coaggregating pairs tested” value ([8]; in contrast to D-tagatose)?
The value was “little or no effect”.

What about the coaggregation score [9] of the same compound?
The coaggregation score was 1.

And the coaggregation score [10]?
The coaggregation score was 1.

And the coaggregation score [11]?
The coaggregation score was 0.

What about the coaggregation score [12] of the same compound?
Its coaggregation score is 2.

And the coaggregation score [13]?
Its coaggregation score is 2.

And the coaggregation score [14]?
Its coaggregation score is 4.

And the coaggregation score [15]?
The coaggregation score was 1.

What about the coaggregation score [16] of the same compound?
The coaggregation score was 0.

What about the coaggregation score [17] of the same compound?
Its coaggregation score is 1.

What about the coaggregation score [18] of the same compound?
Its coaggregation score is 3.

What about the coaggregation score [19] of the same compound?
The coaggregation score was 4.

What about the coaggregation score [20] of the same compound?
Its coaggregation score is 1.

And the “dissociation of coaggregate clumps” value [21]?
The value was “did not dissociate the clumps”.
